From PubChem BioAssay AID1963423 (Molecular Pharmacology Branch, DTP, NCI, 2024)
Several values for one entry are separate records, joined by “and”; a condition that tells them apart may be missing. Equal values may be shown once. Each block holds one molecule with its values, some of them ahead of it.

Tested on: 439559-082-T-J2-PDC complex spheroid growth
Test: Anticancer human tumor 439559-082-T-J2-PDC patient-derived colon adenocarcinoma cell line growth inhibition [Asc]
Settings: for viability, T/C: stronger effect = lower value
Summary of the method: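 Stromal components (HUVEC and hMSC) are co-assembled with the cancer cells into multicellular spheroids. Drugs are then added singly or paired, at concentrations falling by half-log increments from a clinically achievable maximum, capped at 10 microM without known Cmax.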
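Also: spheroids exposed to agents for 7 days starting day 3 after seeding.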
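For viability, T/C in this document: percent of DMSO vehicle control viability with 100% = vehicle.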

- IC50 (curve of first compound, second compound 0.00316 µM): > 3 µM
- IC50 (curve of first compound, second compound 0.01 µM): > 3 µM
- IC50 (curve of first compound, second compound 0.0316 µM): > 3 µM
- IC50 (curve of first compound, second compound 0.1 µM): > 3 µM
- IC50 (curve of first compound, second compound 0.316 µM): > 3 µM
- IC50 (curve of first compound, second compound 1 µM): > 3 µM
SMILES: CCN1C(C(=O)NC23CCC(C(=O)O)(CC2)CC3)C(c2cccc(Cl)c2F)C2(C(=O)Nc3cc(Cl)ccc32)C12CCCCC2 (centres undefined) + CNC(C)C(=O)NC1CN(S(=O)(=O)c2cccc(S(=O)(=O)N3CCC4CCC(C(=O)NC(c5ccccc5)c5ccccc5)N4C(=O)C(NC(=O)C(C)NC)C3)c2)CCC2CCC(C(=O)NC(c3ccccc3)c3ccccc3)N2C1=O
- viability, T/C (second compound 0.00316 µM, first compound 0.00949 µM): 116%
- viability, T/C (second compound 0.00316 µM, first compound 0.03 µM): 92.9%
- viability, T/C (second compound 0.00316 µM, first compound 0.0949 µM): 107%
- viability, T/C (second compound 0.00316 µM, first compound 0.3 µM): 106%
- viability, T/C (second compound 0.00316 µM, first compound 0.949 µM): 95.6%
- viability, T/C (second compound 0.00316 µM, first compound 3 µM): 107%
- viability, T/C (second compound 0.01 µM, first compound 0.00949 µM): 109%
- viability, T/C (second compound 0.01 µM, first compound 0.03 µM): 103%
- viability, T/C (second compound 0.01 µM, first compound 0.0949 µM): 100%
- viability, T/C (second compound 0.01 µM, first compound 0.3 µM): 99.8%
- viability, T/C (second compound 0.01 µM, first compound 0.949 µM): 113%
- viability, T/C (second compound 0.01 µM, first compound 3 µM): 96.5%
- viability, T/C (second compound 0.0316 µM, first compound 0.00949 µM): 103%
- viability, T/C (second compound 0.0316 µM, first compound 0.03 µM): 106%
- viability, T/C (second compound 0.0316 µM, first compound 0.0949 µM): 103%
- viability, T/C (second compound 0.0316 µM, first compound 0.3 µM): 102%
- viability, T/C (second compound 0.0316 µM, first compound 0.949 µM): 115%
- viability, T/C (second compound 0.0316 µM, first compound 3 µM): 110%
- viability, T/C (second compound 0.1 µM, first compound 0.00949 µM): 95.9%
- viability, T/C (second compound 0.1 µM, first compound 0.03 µM): 101%
- viability, T/C (second compound 0.1 µM, first compound 0.0949 µM): 117%
- viability, T/C (second compound 0.1 µM, first compound 0.3 µM): 99.1%
- viability, T/C (second compound 0.1 µM, first compound 0.949 µM): 105%
- viability, T/C (second compound 0.1 µM, first compound 3 µM): 107%
- viability, T/C (second compound 0.316 µM, first compound 0.00949 µM): 105%
- viability, T/C (second compound 0.316 µM, first compound 0.03 µM): 94.2%
- viability, T/C (second compound 0.316 µM, first compound 0.0949 µM): 91.3%
- viability, T/C (second compound 0.316 µM, first compound 0.3 µM): 85.3%
- viability, T/C (second compound 0.316 µM, first compound 0.949 µM): 96.5%
- viability, T/C (second compound 0.316 µM, first compound 3 µM): 87.1%
- viability, T/C (second compound 1 µM, first compound 0.00949 µM): 78.6%
- viability, T/C (second compound 1 µM, first compound 0.03 µM): 87.7%
- viability, T/C (second compound 1 µM, first compound 0.0949 µM): 76.8%
- viability, T/C (second compound 1 µM, first compound 0.3 µM): 75.8%
- viability, T/C (second compound 1 µM, first compound 0.949 µM): 88.8%
- viability, T/C (second compound 1 µM, first compound 3 µM): 79.5%

- IC50 (curve of first compound, second compound 0.03 µM): > 3 µM
- IC50 (curve of first compound, second compound 0.0949 µM): > 3 µM
- IC50 (curve of first compound, second compound 0.3 µM): > 3 µM
- IC50 (curve of first compound, second compound 0.949 µM): > 3 µM
- IC50 (curve of first compound, second compound 3 µM): > 3 µM
SMILES: Cc1nc(N2CCC3(CC2)COC(C)C3N)c(CO)nc1Sc1ccnc(N)c1Cl (centres undefined) + CCN1C(C(=O)NC23CCC(C(=O)O)(CC2)CC3)C(c2cccc(Cl)c2F)C2(C(=O)Nc3cc(Cl)ccc32)C12CCCCC2
- viability, T/C (second compound 0.03 µM, first compound 0.00949 µM): 109%
- viability, T/C (second compound 0.03 µM, first compound 0.03 µM): 110%
- viability, T/C (second compound 0.03 µM, first compound 0.0949 µM): 106%
- viability, T/C (second compound 0.03 µM, first compound 0.3 µM): 91.6%
- viability, T/C (second compound 0.03 µM, first compound 0.949 µM): 91.7%
- viability, T/C (second compound 0.03 µM, first compound 3 µM): 80.3%
- viability, T/C (second compound 0.0949 µM, first compound 0.00949 µM): 107%
- viability, T/C (second compound 0.0949 µM, first compound 0.03 µM): 109%
- viability, T/C (second compound 0.0949 µM, first compound 0.0949 µM): 114%
- viability, T/C (second compound 0.0949 µM, first compound 0.3 µM): 93.7%
- viability, T/C (second compound 0.0949 µM, first compound 0.949 µM): 86.9%
- viability, T/C (second compound 0.0949 µM, first compound 3 µM): 86.1%
- viability, T/C (second compound 0.3 µM, first compound 0.00949 µM): 106%
- viability, T/C (second compound 0.3 µM, first compound 0.03 µM): 111%
- viability, T/C (second compound 0.3 µM, first compound 0.0949 µM): 105%
- viability, T/C (second compound 0.3 µM, first compound 0.3 µM): 87.8%
- viability, T/C (second compound 0.3 µM, first compound 0.949 µM): 91.2%
- viability, T/C (second compound 0.3 µM, first compound 3 µM): 81.2%
- viability, T/C (second compound 0.949 µM, first compound 0.00949 µM): 103%
- viability, T/C (second compound 0.949 µM, first compound 0.03 µM): 113%
- viability, T/C (second compound 0.949 µM, first compound 0.0949 µM): 115%
- viability, T/C (second compound 0.949 µM, first compound 0.3 µM): 93.5%
- viability, T/C (second compound 0.949 µM, first compound 0.949 µM): 93.2%
- viability, T/C (second compound 0.949 µM, first compound 3 µM): 82.2%
- viability, T/C (second compound 3 µM, first compound 0.00949 µM): 89.5%
- viability, T/C (second compound 3 µM, first compound 0.03 µM): 96%
- viability, T/C (second compound 3 µM, first compound 0.0949 µM): 97.4%
- viability, T/C (second compound 3 µM, first compound 0.3 µM): 87.8%
- viability, T/C (second compound 3 µM, first compound 0.949 µM): 77.9%
- viability, T/C (second compound 3 µM, first compound 3 µM): 82.7%

- IC50 (curve of compound): > 0.1 µM
SMILES: NC1CCC(NC2CC2c2ccccc2)CC1 (centres undefined)
- viability, T/C (compound 0.000316 µM): 106% and 107% and 103%
- viability, T/C (compound 0.001 µM): 119% and 117% and 92.5%
- viability, T/C (compound 0.00316 µM): 112% and 106% and 107%
- viability, T/C (compound 0.01 µM): 114% and 108% and 92.8%
- viability, T/C (compound 0.0316 µM): 109% and 103% and 96%
- viability, T/C (compound 0.1 µM): 112% and 106% and 95.2%
